Measurements taken from ChEMBL document CHEMBL1201862, “PubChem BioAssay data set” (2004).
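Briefly, cells in 96-well plates were exposed to five compound concentrations for 48 h, and endpoints were estimated by linear interpolation. The concentration for 50% growth inhibition is given as GI50.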 The source made the active and inactive calls. Cut-off read from the data, not from the text of the source: active = GI50 up to about 1.1 µM and inactive = higher.

Experiments:
Assay in all cases: inhibition of tumour cell growth, NCI panel, 48 h
DMS-273 = tested on: DMS-273
SNB-78 = tested on: SNB-78
HOP-18 = tested on: HOP-18
KM-20L2 = tested on: KM-20L2
DMS-114 = tested on: DMS-114
DLD-1 = tested on: DLD-1
M19-MEL = tested on: M19-MEL
RXF 631 = tested on: RXF 631
XF498 = tested on: XF498

SMILES | GI50 (DMS-273) | GI50 (SNB-78) | GI50 (HOP-18) | GI50 (KM-20L2) | GI50 (DMS-114) | GI50 (DLD-1) | GI50 (M19-MEL) | GI50 (RXF 631) | GI50 (XF498)
COc1ccc(C(C)c2cc3c(cc2OC)OCO3)cc1 (stereo not given) | 0.106 µM (active) | 0.612 µM (active) | 0.371 µM (active) | 0.225 µM (active) | 0.339 µM (active) | 0.225 µM (active) | 0.395 µM (active) | – | –
O=C(/C=C/c1ccccc1)c1ccc(Cl)cc1Cl | 15.5 µM (inactive) | 22.6 µM (inactive) | 22 µM (inactive) | 19.5 µM (inactive) | 17.3 µM (inactive) | 17.1 µM (inactive) | 23.4 µM (inactive) | 38 µM (inactive) | –
C/C=C/C=N/N(c1nnc(-c2ccccc2)c(-c2ccccc2)n1)S(=O)(=O)c1ccc(C)cc1 | 11.1 µM (inactive) | 15.3 µM (inactive) | 14.2 µM (inactive) | 13.2 µM (inactive) | 13 µM (inactive) | 5.05 µM (inactive) | 13.2 µM (inactive) | 17.5 µM (inactive) | –
O=C(/C=C/c1ccccc1O)c1cccnc1 | > 100 µM (inactive) | > 100 µM (inactive) | > 100 µM (inactive) | > 100 µM (inactive) | – | > 100 µM (inactive) | > 100 µM (inactive) | > 100 µM (inactive) | > 100 µM (inactive)
C(/C=C/N1CCCC1)=C\c1nc(N2CCCC2)c2ccccc2n1 | 18.4 µM (inactive) | 20.7 µM (inactive) | 16.5 µM (inactive) | 24.9 µM (inactive) | 18.5 µM (inactive) | 18.7 µM (inactive) | 17 µM (inactive) | 7.73 µM (inactive) | –
COc1ccc(C=O)cc1O[Si](C)(C)C(C)(C)C | > 100 µM (inactive) | > 100 µM (inactive) | 33.7 µM (inactive) | > 100 µM (inactive) | > 100 µM (inactive) | > 100 µM (inactive) | > 100 µM (inactive) | – | –
O=C1O[C@H](C(Cl)(Cl)Cl)N2CCCC12 (stereo not given in full) | > 100 µM (inactive) | – | 18.5 µM (inactive) | > 100 µM (inactive) | > 100 µM (inactive) | – | > 100 µM (inactive) | – | > 100 µM (inactive)
CC(C)=C1CCC(CN(C)C)C1=O (stereo not given) | – | > 10 µM (inactive) | 22.1 µM (inactive) | 13.7 µM (inactive) | 16.5 µM (inactive) | 6.85 µM (inactive) | 47.2 µM (inactive) | 13.6 µM (inactive) | –
Cc1cc(NS(=O)(=O)c2ccc(NC(=O)c3ccc(Cl)c4c(Nc5ccc(S(=O)(=O)Nc6cc(C)on6)cc5)c5ccccc5nc34)cc2)no1 | 22.5 µM (inactive) | 36.1 µM (inactive) | 15.8 µM (inactive) | 21.5 µM (inactive) | 18.5 µM (inactive) | > 10 µM (inactive) | 22.9 µM (inactive) | – | 31.8 µM (inactive)
COC(=O)NC1C(C)OC(OC2C/C=C(/C)C3C=CC4C(OC5CC(OC6CCC(OC7CC(O)C(OC8CCC(O)C(C)O8)C(C)O7)C(C)O6)C(OC(C)=O)C(C)O5)C(C)CC(C)C4C3(C)/C(O)=C3/C(=O)OC4(CC(C=O)=CC(O)C4/C=C\2C)C3=O)CC1(C)[N+](=O)[O-] (stereo not given) | 1.27 µM (inactive) | 1.82 µM (inactive) | 2.15 µM (inactive) | 1.29 µM (inactive) | 0.385 µM (active) | 2.45 µM (inactive) | 0.367 µM (active) | 0.603 µM (active) | 0.261 µM (active)
Cn1c2c(c3ccccc31)CCN(CCCCN1CCN(c3cccc(Cl)c3)CC1)C2=O | 9.06 µM (inactive) | 2.88 µM (inactive) | 29 µM (inactive) | 4.17 µM (inactive) | 1.67 µM (inactive) | 10.6 µM (inactive) | 11.5 µM (inactive) | – | 14.4 µM (inactive)
Oc1nc(S)nc2c1CCCN2 | – | > 100 µM (inactive) | > 100 µM (inactive) | – | > 100 µM (inactive) | > 100 µM (inactive) | > 100 µM (inactive) | > 100 µM (inactive) | –
COc1ccc(C2(Cl)C(Cl)(C(F)(F)F)C2(Cl)C(F)(F)F)cc1 (stereo not given) | 14.3 µM (inactive) | 14.7 µM (inactive) | 15.3 µM (inactive) | 15.6 µM (inactive) | 12.5 µM (inactive) | 15.7 µM (inactive) | 13.6 µM (inactive) | 15.2 µM (inactive) | 12.9 µM (inactive)
Nc1ccc(C(=O)NN2C(=O)C(Cl)C2c2ccccc2O)cc1 (stereo not given) | 55.2 µM (inactive) | > 100 µM (inactive) | – | 70 µM (inactive) | 21.1 µM (inactive) | 54.3 µM (inactive) | 49.1 µM (inactive) | – | 37.3 µM (inactive)
CC(=O)Oc1c(Br)ccc2cc(C(Br)Br)c(C(=O)c3ccccc3)nc12 | 20.6 µM (inactive) | 27.7 µM (inactive) | 17.2 µM (inactive) | 19.4 µM (inactive) | 24.8 µM (inactive) | 24 µM (inactive) | 22.3 µM (inactive) | 23.5 µM (inactive) | 14.8 µM (inactive)
CCCCC1CC(c2cccc([N+](=O)[O-])c2)=NO1 (stereo not given) | > 100 µM (inactive) | > 100 µM (inactive) | 80.4 µM (inactive) | > 100 µM (inactive) | 40.6 µM (inactive) | > 100 µM (inactive) | 74.6 µM (inactive) | 80.7 µM (inactive) | –
CCOC(=O)c1c(C(F)(F)F)oc2c1ccc1nc3nonc3nc12 | 19.1 µM (inactive) | 14.7 µM (inactive) | 11 µM (inactive) | 18.2 µM (inactive) | 23.7 µM (inactive) | 14.3 µM (inactive) | 18.6 µM (inactive) | 19 µM (inactive) | 17 µM (inactive)
CC(=O)OC1CC(n2cc(F)c(=O)[nH]c2=O)OC1CO (stereo not given) | 0.331 µM (active) | > 100 µM (inactive) | 6.61 µM (inactive) | 0.962 µM (active) | 1.36 µM (inactive) | 28.8 µM (inactive) | > 100 µM (inactive) | – | 13.7 µM (inactive)
CCOc1ccc(/N=N/c2ccc3oc(=O)c(C(=O)Nc4ccc(OC)cc4)cc3c2)cc1 | 25.8 µM (inactive) | 21.3 µM (inactive) | – | 32.2 µM (inactive) | – | 8.32 µM (inactive) | 26.4 µM (inactive) | – | –
CCc1cccc(C)c1NC(=O)CC1Sc2ccccc2NC1=O (stereo not given) | 48.9 µM (inactive) | 34.4 µM (inactive) | 19.5 µM (inactive) | 46.5 µM (inactive) | 57.3 µM (inactive) | 28.4 µM (inactive) | 45.4 µM (inactive) | 35.8 µM (inactive) | 72.9 µM (inactive)
C1CC2=C(C1)C1=S(S2)SC2=C1CCC2 | > 100 µM (inactive) | > 100 µM (inactive) | > 100 µM (inactive) | > 100 µM (inactive) | > 100 µM (inactive) | > 100 µM (inactive) | > 100 µM (inactive) | > 100 µM (inactive) | –
CC(C)(C)OC(=O)Cc1ccc2c(ccn2Cc2ccccc2)c1 | 48 µM (inactive) | > 100 µM (inactive) | > 100 µM (inactive) | 26.3 µM (inactive) | 18.7 µM (inactive) | 57.3 µM (inactive) | 62.4 µM (inactive) | 25.9 µM (inactive) | –
O=S(=O)(O)c1ccc(-c2c3nc(c(-c4ccc(S(=O)(=O)O)cc4)c4ccc([nH]4)c(-c4ccc(S(=O)(=O)O)cc4)c4nc(c(-c5ccc(S(=O)(=O)O)cc5)c5ccc2[nH]5)C=C4)C=C3)cc1 | 95.5 µM (inactive) | 44.6 µM (inactive) | > 100 µM (inactive) | > 100 µM (inactive) | 40.2 µM (inactive) | > 100 µM (inactive) | > 100 µM (inactive) | 80.9 µM (inactive) | > 100 µM (inactive)
C1OCC2S[C@@H]3COCO[C@@H]3C2O1 (stereo not given in full) | > 100 µM (inactive) | > 100 µM (inactive) | – | > 100 µM (inactive) | > 100 µM (inactive) | > 100 µM (inactive) | > 100 µM (inactive) | – | > 100 µM (inactive)
CN(C(=O)C1CC1)C1C2CN3CCC(O2)C13 (stereo not given) | > 100 µM (inactive) | 94.4 µM (inactive) | > 100 µM (inactive) | > 100 µM (inactive) | > 100 µM (inactive) | > 100 µM (inactive) | > 100 µM (inactive) | – | –
CC(C)=CCCc1c(C)ccc2c1C(=O)C(=O)C(C(C)C)=C2 | 3.97 µM (inactive) | – | 4.02 µM (inactive) | > 22 µM (inactive) | 4.2 µM (inactive) | 3.48 µM (inactive) | 3.87 µM (inactive) | – | 3.77 µM (inactive)
COC(=O)c1ccc2c(c1)C(NC(C)=O)CCc1cc(OC)c(OC)c(OC)c1-2 (stereo not given) | < 0.01 µM (active) | < 0.0152 µM (active) | > 40.4 µM (inactive) | 0.0118 µM (active) | < 0.0126 µM (active) | 0.0173 µM (active) | 0.0235 µM (active) | 0.014 µM (active) | 0.06 µM (active)
COc1ccc2c(c1)CC1c3c(cc4c(c3-2)OCO4)CCN1C (stereo not given) | 25.7 µM (inactive) | 40.7 µM (inactive) | 21.4 µM (inactive) | 30.8 µM (inactive) | 24.3 µM (inactive) | 41.9 µM (inactive) | 21.4 µM (inactive) | 24.5 µM (inactive) | 27.7 µM (inactive)
CC(=O)/C=C/c1ccc(C)cc1 | > 100 µM (inactive) | > 100 µM (inactive) | > 100 µM (inactive) | > 100 µM (inactive) | > 100 µM (inactive) | > 100 µM (inactive) | > 100 µM (inactive) | – | –
